Measurements reported in patent US9451771B2, “Compositions and methods to attract the brown marmorated stink bug (BMSB), Halyomorpha halys” (United States of America as Represented by the Secretary of …, priority 2012, dated 2016).

System: brown marmorated stink bug (BMSB), Halyomorpha halys
Assay: Synergy trials for attraction of BMSB to #10 and MDT, black pyramid traps
Assay type: in vivo
Method: Synergy trials for attraction of BMSB to #10 and methyl (2E,4E,6Z)-decatrieonate (MDT): From 6 Apr. to 23 Oct. […] Va. (3 replicates), we tested the following four treatments for attraction of BMSB adults and nymphs, using a full-sized black pyramid trap adapted for BMSB (see above): (1) #10 lure (Table 4) replaced every 2 weeks; (2) #3 lure, MDT, (Sterling International, Spokane, Wash.; ˜119 mg loading; see text below), replaced every 4 weeks; (3) #14 lure, in which #10 and MDT lures hung together in trap, replaced as above for each lure; and (4) no lure (control).
The MDT lure obtained from Sterling International was extracted with pentane which yielded 420 mg of crude product. According to TLC analysis on silica using dichloromethane, the extracted material contained MTD (Rf 0.46) plus unknown chemical(s) with Rf 0.20. This material was flash chromatographed on silica with hexane:dichloromethane, 1:1, to obtain 119 mg of pure MDT. The identity of MDT was re-confirmed by comparison of the gas chromatographic retention time and mass-spectrum with those of a standard prepared according to Khrimian (Khrimian, A., Tetrahedron, 61: 3651-3657 (2005)).
Traps were checked and collected twice-weekly in Beltsville, and weekly in Arden, as described previously, and the treatments were re-randomized at each collection. Field trapping results were summed by approximately two-week intervals, and the totals for each replicate analyzed by ANOVA and additionally with Tukey's HSD multiple comparisons at α=0.05 if the overall 1-way ANOVA F-test was significant at α=0.05. In addition, a two-way ANOVA with interaction was tested to determine if the combined lure provoked a different level of attractiveness (a significant interaction) than would be expected from a combination of the attractiveness of each separate lure type. Such an interaction, with numbers exceeding the expected attraction for the combined lure, represents a true synergy of the two lures.

[1] = Arden, WV 2012, 15May-23 Oct, TOTAL
[2] = Arden, WV 2012, Aug2-13, 11-day total
[3] = Arden, WV 2012, Aug13-27, 14-day total
[4] = Arden, WV 2012, Aug27-Sep10, 14-day total
[5] = Arden, WV 2012, July2-17, 15-day total
[6] = Arden, WV 2012, July17-Aug2, 16-day total
[7] = Arden, WV 2012, June4-19, 15-day total
[8] = Arden, WV 2012, June19-July2, 13-day total
[9] = Arden, WV 2012, May 16-23, 7-day total
[10] = Arden, WV 2012, May23-Jun4, 14-day total
[11] = Arden, WV 2012, Oct9-23, 14-day total
[12] = Arden, WV 2012, Sep10-24, 14-day total
[13] = Arden, WV 2012, Sep24-Oct9, 17-day total
[14] = Arden, WV, 3 replicates, 20 May through 23 Oct. 2012
[15] = Arden, WV, 20 May through 23 Oct. 2012
[16] = Beltsville, MD 2012, 4-22 May, 18-day total, 4 traps/trtmt
[17] = Beltsville, MD 2012, 5-19 June, 14-day total, 4 traps/trtmt
[18] = Beltsville, MD 2012, 5-23Oct, 18-day total, 4 traps/trtmt
[19] = Beltsville, MD 2012, 6-20 April, 14-day total, 4 traps/trtmt
[20] = Beltsville, MD 2012, 6APR-23OCT, Total
[21] = Beltsville, MD 2012, 6APR-23OCT, Total, 4 traps/trtmt
[22] = Beltsville, MD 2012, 7-21 Sept, 14-day total, 4 traps/trtmt
[23] = Beltsville, MD 2012, 10-24 Aug, 14-day total, 4 traps/trtmt
[24] = Beltsville, MD 2012, 13-27 July
[25] = Beltsville, MD 2012, 13-27 July, 14-day total, 4 traps/trtmt
[26] = Beltsville, MD 2012, 19-29 June
[27] = Beltsville, MD 2012, 19-29 June, 10-day total, 4 traps/trtmt
[28] = Beltsville, MD 2012, 20 April-4 May, 14-day total, 4 traps/trtmt
[29] = Beltsville, MD 2012, 21Sep-5 Oct
[30] = Beltsville, MD 2012, 21Sep-5 Oct, 14-day total, 4 traps/trtmt
[31] = Beltsville, MD 2012, 24Aug-7Sept
[32] = Beltsville, MD 2012, 24Aug-7Sept, 14-day total, 4 traps/trtmt
[33] = Beltsville, MD 2012, 27 July-10 Aug
[34] = Beltsville, MD 2012, 27 July-10 Aug, 14-day total, 4 traps/trtmt
[35] = Beltsville, MD 2012, 29 June-13 July
[36] = Beltsville, MD 2012, 29 June-13 July, 14-day total, 4 traps/trtmt
[37] = Beltsville, MD, 4 replicates, 6 April through 23 Oct. 2012
[38] = Beltsville, MD, 6 April through 23 Oct. 2012

CCC\C=C/C=C/C=C/C(=O)OC [Lure #3, Methyl (2E,4E,6Z)-decatrienoate]
adults captured [1]: 999
adults captured (% of total) [1]: 17.9%
nymphs captured [1]: 386
nymphs captured (% of total) [1]: 18.4%
adults captured (% of total) (Arden, WV 2012, Aug2-13): 10.40%
nymphs captured (% of total) (Arden, WV 2012, Aug2-13): 9.5%
adults captured [2]: 7
nymphs captured [2]: 38
adults captured (% of total) (Arden, WV 2012, Aug13-27): 3.10%
nymphs captured (% of total) (Arden, WV 2012, Aug13-27): 10.0%
adults captured [3]: 4
nymphs captured [3]: 51
adults captured (% of total) (Arden, WV 2012, Aug27-Sep10): 1.60%
nymphs captured (% of total) (Arden, WV 2012, Aug27-Sep10): 42.8%
adults captured [4]: 3
nymphs captured [4]: 68
adults captured (% of total) (Arden, WV 2012, July2-17): 0%
nymphs captured (% of total) (Arden, WV 2012, July2-17): 5.0%
adults captured [5]: 0
nymphs captured [5]: 8
adults captured (% of total) (Arden, WV 2012, July17-Aug2): 0%
nymphs captured (% of total) (Arden, WV 2012, July17-Aug2): 22.2%
adults captured [6]: 0
nymphs captured [6]: 8
adults captured (% of total) (Arden, WV 2012, June4-19): 0%
adults captured [7]: 0
nymphs captured [7]: 0
adults captured (% of total) (Arden, WV 2012, June19-July2): 0%
nymphs captured (% of total) (Arden, WV 2012, June19-July2): 0%
adults captured [8]: 0
nymphs captured [8]: 0
adults captured (% of total) (Arden, WV 2012, May 16-23): 0%
adults captured [9]: 0
nymphs captured [9]: 0
adults captured (% of total) (Arden, WV 2012, May23-Jun4): 0%
adults captured [10]: 0
nymphs captured [10]: 0
adults captured (% of total) (Arden, WV 2012, Oct9-23): 28.90%
nymphs captured (% of total) (Arden, WV 2012, Oct9-23): 60.5%
adults captured [11]: 120
nymphs captured [11]: 20
adults captured (% of total) (Arden, WV 2012, Sep10-24): 12.70%
nymphs captured (% of total) (Arden, WV 2012, Sep10-24): 23.9%
adults captured [12]: 333
nymphs captured [12]: 135
adults captured (% of total) (Arden, WV 2012, Sep24-Oct9): 25.20%
nymphs captured (% of total) (Arden, WV 2012, Sep24-Oct9): 25.7%
adults captured [13]: 532
nymphs captured [13]: 58
Season-long total captures of BMSB adults [14]: 999 b
Season-long total captures of BMSB nymphs [14]: 386 b
Season-long captures of BMSB adults, share of TOTAL [15]: 17.9%
Season-long captures of BMSB nymphs, share of TOTAL [15]: 18.4%
adults captured (% of total) (Beltsville, MD 2012, 4-22 May): 2.10%
adults captured [16]: 2
nymphs captured [16]: 0
adults captured (% of total) (Beltsville, MD 2012, 5-19 June): 4.20%
nymphs captured (% of total) (Beltsville, MD 2012, 5-19 June): 25.10%
adults captured [17]: 6
nymphs captured [17]: 63
adults captured (% of total) (Beltsville, MD 2012, 5-23Oct): 17.50%
nymphs captured (% of total) (Beltsville, MD 2012, 5-23Oct): 35.70%
adults captured [18]: 6
nymphs captured [18]: 5
adults captured (% of total) (Beltsville, MD 2012, 6-20 April): 10.20%
adults captured [19]: 6
nymphs captured [19]: 0
adults captured (% of total) [20]: 10.40%
nymphs captured (% of total) [20]: 28.30%
adults captured [21]: 1203
nymphs captured [21]: 1823
adults captured (% of total) (Beltsville, MD 2012, 7-21 Sept): 20.30%
nymphs captured (% of total) (Beltsville, MD 2012, 7-21 Sept): 30.00%
adults captured [22]: 314
nymphs captured [22]: 36
adults captured (% of total) (Beltsville, MD 2012, 10-24 Aug): 4.60%
nymphs captured (% of total) (Beltsville, MD 2012, 10-24 Aug): 14.80%
adults captured [23]: 7
nymphs captured [23]: 212
adults captured (% of total) [24]: 0.00%
nymphs captured (% of total) [24]: 20.30%
adults captured [25]: 0
nymphs captured [25]: 13
adults captured (% of total) [26]: 0.00%
nymphs captured (% of total) [26]: 1.30%
adults captured [27]: 0
nymphs captured [27]: 6
adults captured (% of total) (Beltsville, MD 2012, 20 April-4 May): 21.90%
adults captured [28]: 7
nymphs captured [28]: 0
adults captured (% of total) [29]: 27.90%
nymphs captured (% of total) [29]: 40.50%
adults captured [30]: 440
nymphs captured [30]: 17
adults captured (% of total) (Beltsville, MD 2012, 22 May-5 June): 2.90%
nymphs captured (% of total) (Beltsville, MD 2012, 22May-5June): 38.90%
adults captured (Beltsville, MD 2012, 22 May-5 June, 14-day total, 4 traps/trtmt): 3
nymphs captured (Beltsville, MD 2012, 22May-5June, 14-day total, 4 traps/trtmt): 7
adults captured (% of total) [31]: 22.20%
nymphs captured (% of total) [31]: 41.80%
adults captured [32]: 393
nymphs captured [32]: 1018
adults captured (% of total) [33]: 6.10%
nymphs captured (% of total) [33]: 30.80%
adults captured [34]: 14
nymphs captured [34]: 406
adults captured (% of total) [35]: 8.60%
nymphs captured (% of total) [35]: 14.50%
adults captured [36]: 5
nymphs captured [36]: 40
Season-long total captures of BMSB adults [37]: 1203 b
Season-long total captures of BMSB nymphs [37]: 1823 b
Season-long captures of BMSB adults, share of TOTAL [38]: 20.4%
Season-long captures of BMSB nymphs, share of TOTAL [38]: 28.3%
